The record followed here is US11759455B2, “Substituted 1H-imidazo[4,5-b]pyridin-2(3H)-ones and their use as GLUN2B receptor modulators” (JANSSEN PHARMACEUTICA NV, priority 2016, dated 2023).

T1 sequence (Q13224 27-1484, other chains not shown): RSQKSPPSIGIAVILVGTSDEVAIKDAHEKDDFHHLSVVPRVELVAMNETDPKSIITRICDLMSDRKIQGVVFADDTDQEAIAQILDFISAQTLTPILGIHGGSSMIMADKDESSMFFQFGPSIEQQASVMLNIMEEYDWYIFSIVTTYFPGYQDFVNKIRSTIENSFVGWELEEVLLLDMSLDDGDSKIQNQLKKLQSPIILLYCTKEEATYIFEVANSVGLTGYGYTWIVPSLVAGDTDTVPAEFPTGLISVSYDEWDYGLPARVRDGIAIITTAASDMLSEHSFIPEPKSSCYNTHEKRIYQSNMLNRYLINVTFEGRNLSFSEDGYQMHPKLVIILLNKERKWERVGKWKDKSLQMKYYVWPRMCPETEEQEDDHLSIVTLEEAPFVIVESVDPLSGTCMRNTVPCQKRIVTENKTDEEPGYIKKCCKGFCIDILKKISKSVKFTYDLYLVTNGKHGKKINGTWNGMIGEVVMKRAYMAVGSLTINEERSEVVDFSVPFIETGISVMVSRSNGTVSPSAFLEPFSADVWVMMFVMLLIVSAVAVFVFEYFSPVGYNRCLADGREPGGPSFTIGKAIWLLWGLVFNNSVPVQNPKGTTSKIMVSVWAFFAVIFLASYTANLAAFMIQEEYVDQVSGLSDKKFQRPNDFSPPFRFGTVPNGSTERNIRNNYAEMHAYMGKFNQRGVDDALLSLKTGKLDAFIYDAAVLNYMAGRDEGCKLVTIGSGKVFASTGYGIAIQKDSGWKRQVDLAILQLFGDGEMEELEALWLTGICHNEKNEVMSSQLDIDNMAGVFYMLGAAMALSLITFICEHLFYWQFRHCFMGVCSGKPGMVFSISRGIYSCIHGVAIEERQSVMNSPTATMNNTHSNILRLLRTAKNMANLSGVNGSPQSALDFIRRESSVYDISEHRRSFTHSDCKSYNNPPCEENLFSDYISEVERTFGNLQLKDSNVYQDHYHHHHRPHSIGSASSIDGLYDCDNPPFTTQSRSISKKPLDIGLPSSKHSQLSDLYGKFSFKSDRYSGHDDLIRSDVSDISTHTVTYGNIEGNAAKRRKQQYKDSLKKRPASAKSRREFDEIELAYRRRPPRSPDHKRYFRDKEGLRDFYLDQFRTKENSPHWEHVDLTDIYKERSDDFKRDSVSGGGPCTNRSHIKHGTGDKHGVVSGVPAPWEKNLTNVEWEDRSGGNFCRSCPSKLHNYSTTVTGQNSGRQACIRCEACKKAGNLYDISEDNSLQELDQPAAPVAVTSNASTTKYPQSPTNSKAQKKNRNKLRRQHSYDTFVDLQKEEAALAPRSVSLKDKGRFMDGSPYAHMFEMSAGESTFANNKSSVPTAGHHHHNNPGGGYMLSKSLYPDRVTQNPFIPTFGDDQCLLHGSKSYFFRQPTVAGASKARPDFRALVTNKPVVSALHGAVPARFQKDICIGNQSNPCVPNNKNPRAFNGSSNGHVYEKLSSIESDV

The first assay concerns the target T1, human GluN1/GluN2B NMDA receptors (Homo sapiens, UniProt Q05586+Q13224).
T1 construct: expressed in transfected cells
Briefly: Cell-based calcium flux (FLIPR) assay on cloned human NR1/NR2B ion channels expressed in mammalian cells (standard and HTS buffer variants).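 Also: stable Tet-On inducible cell line, Ca2+ influx triggered by glutamate at about EC40 plus 10 µM glycine, fluorescent dye read-out over 5 min, normalized to control wells.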 Conditions: HTS assay buffer (1.5 mM MgCl2 dye loading; 150 mM NaCl, 3 mM KCl assay buffer), human GluN1/GluN2B cells, read-out: NR2B IC50 (μM) HTS assay. (In general: Calcium assays in cells follow changes in intracellular calcium, usually with a dye or a luminescent sensor.)
What is called IC50 is the midpoint of a concentration-inhibition curve. `CCC(O)Cn1c(=O)[nH]c2ncc(-c3ccc(F)cc3C)cc21` (single isomer, unassigned) [Example 43, (R*)-6-(4-Fluoro-2-methyl-phenyl)-1-(2-hydroxybutyl)-3H-imidazo[4,5-b]pyridin-2-one]: the IC50 came to 3.49 µM.

Take `CCC(O)Cn1c(=O)[nH]c2ncc(-c3ccc(F)cc3C)cc21` (single isomer, unassigned) [Example 44, (S*)-6-(4-Fluoro-2-methyl-phenyl)-1-(2-hydroxybutyl)-3H-imidazo[4,5-b]pyridin-2-one]: the IC50 came out at 0.325 µM.

The same assay, now with this note: standard assay buffer (0.5 mM MgCl2 dye loading; 137 mM NaCl, 4 mM KCl assay buffer), human GluN1/GluN2B cells, read-out: NR2B IC50 (μM) standard assay.
Take `CCC(O)Cn1c(=O)[nH]c2ncc(-c3ccc(OC)cc3)cc21` (single isomer, unassigned) [Example 4, (S*)-1-(2-Hydroxybutyl)-6-(4-methoxyphenyl)-3H-imidazo[4,5-b]pyridin-2-one]: the IC50 amounted to 0.32 µM. Still for that read-out and setting: the same measure for `O=c1[nH]c2ncc(-c3cccc(C(F)(F)F)c3)cc2n1CC1CCO1` (single isomer, unassigned) [Example 223, (R*)-1-(Oxetan-2-ylmethyl)-6-[3-(trifluoromethyl)phenyl]-3H-imidazo[4,5-b]pyridin-2-one]: 0.036 µM; for `O=c1[nH]c2ncc(-c3cccc(C(F)(F)F)c3)cc2n1CC1CCO1` (single isomer, unassigned) [Example 224, (S*)-1-(Oxetan-2-ylmethyl)-6-[3-(trifluoromethyl)phenyl]-3H-imidazo[4,5-b]pyridin-2-one]: 0.054 µM; for `Cn1c(=O)n(CC(=O)N2CC(F)C2)c2cc(-c3csc(C(F)(F)F)c3)cnc21` [Example 102, 1-[2-(3-Fluoroazetidin-1-yl)-2-oxo-ethyl]-3-methyl-6-[5-(trifluoromethyl)-3-thienyl]imidazo[4,5-b]pyridin-2-one]: 0.018 µM.

Regarding `[2H]c1c(-c2ccc(C(F)(F)F)s2)cnc2c1n(CC(=O)N1CCC1)c(=O)n2C` [Example 120, 1-(2-(Azetidin-1-yl)-2-oxoethyl)-3-methyl-6-(5-(trifluoromethyl)thiophen-2-yl)-1,3-dihydro-2H-imidazo[4,5-b]pyridin-2-one-7-D], the IC50 came out at 0.01 µM.

Take `[2H]C([2H])([2H])OCc1ccc(-c2cnc3c(c2)n(CC(=O)N(C)C)c(=O)n3C)s1` [Example 121, N,N-Dimethyl-2-[3-methyl-2-oxo-6-[5-(trideuteriomethoxymethyl)-2-thienyl]imidazo[4,5-b]pyridin-1-yl]acetamide]: the IC50 is 2.96 µM. On the same count and under the same terms, to `[2H]C([2H])([2H])OCc1ccc(-c2cnc3c(c2)n(CC(=O)N2CCC2)c(=O)n3C)s1` [Example 122, 1-[2-(Azetidin-1-yl)-2-oxo-ethyl]-3-methyl-6-[5-(trideuteriomethoxymethyl)-2-thienyl]imidazo[4,5-b]pyridin-2-one] belongs 1.22 µM; to `[2H]C([2H])([2H])OCc1ccc(-c2cnc3c(c2)n(CC(=O)N2CC(F)C2)c(=O)n3C)s1` [Example 123, 1-[2-(3-Fluoroazetidin-1-yl)-2-oxo-ethyl]-3-methyl-6-[5-(trideuteriomethoxymethyl)-2-thienyl]imidazo[4,5-b]pyridin-2-one], 1.82 µM.

Still in this assay, the particulars now being: standard assay buffer (0.5 mM MgCl2 in dye loading buffer; 137 mM NaCl, 4 mM KCl in assay buffer), human GluN1/GluN2B, read-out: NR2B IC50 (μM) standard assay.
Consider `Cn1c(=O)n(CC2CCO2)c2cc(-c3cccc(Cl)c3)cnc21` (racemic) [Example 397, (R/S)-6-(3-Chlorophenyl)-3-methyl-1-(oxetan-2-ylmethyl)imidazo[4,5-b]pyridin-2-one], for which the IC50 stood at 0.228 µM. As to `Cc1c(-c2cnc3c(c2)n(CC2CCO2)c(=O)n3C)cccc1C(F)(F)F` (racemic) [Example 398, (R/S)-3-Methyl-6-[2-methyl-3-(trifluoromethyl)phenyl]-1-(oxetan-2-ylmethyl)imidazo[4,5-b]pyridin-2-one], the IC50 was determined as 2.84 µM. Take `Cc1c(-c2cnc3c(c2)n(CC(O)CCO)c(=O)n3C)cccc1C(F)(F)F` (racemic) [Example 399, (R/S)-1-(2,4-Dihydroxybutyl)-3-methyl-6-[2-methyl-3-(trifluoromethyl)phenyl]imidazo[4,5-b]pyridin-2-one]: the IC50 is 5.1 µM. Still for that read-out and setting: the same measure for `Cc1cc(-c2cnc3c(c2)n(CC(=O)N2CCC2)c(=O)n3C)ccc1F` [Example 410, 1-[2-(Azetidin-1-yl)-2-oxo-ethyl]-6-(4-fluoro-3-methyl-phenyl)-3-methyl-imidazo[4,5-b]pyridin-2-one]: 0.013 µM; for `COc1ccc(-c2cnc3[nH]c(=O)n(CC(=O)C(C)(C)C)c3c2)cc1` [Example 601, 1-(3,3-Dimethyl-2-oxo-butyl)-6-(4-methoxyphenyl)-3H-imidazo[4,5-b]pyridin-2-one]: 1.63 µM; for `COc1ccc(-c2cnc3[nH]c(=O)n(CC(=O)C(C)(C)C)c3c2)cc1C` [Example 603, 1-(3,3-Dimethyl-2-oxo-butyl)-6-(4-methoxy-3-methyl-phenyl)-3H-imidazo[4,5-b]pyridin-2-one]: 1.29 µM. For the compound `COc1ccc(-c2cnc3[nH]c(=O)n(CC(C)C)c3c2)cc1` [Example 604, 1-Isobutyl-6-(4-methoxyphenyl)-3H-imidazo[4,5-b]pyridin-2-one], the IC50 worked out at 1.82 µM.

Regarding `COc1ccc(-c2cnc3[nH]c(=O)n(Cc4ccccc4C#N)c3c2)cc1C` [Example 608, 2-[[6-(4-Methoxy-3-methyl-phenyl)-2-oxo-3H-imidazo[4,5-b]pyridin-1-yl]methyl]benzonitrile], the IC50 was 1.02 µM. With `COc1ccc(-c2cnc3[nH]c(=O)n(CC(=O)C(C)(C)C)c3c2)cc1F` [Example 609, 1-(3,3-Dimethyl-2-oxo-butyl)-6-(3-fluoro-4-methoxy-phenyl)-3H-imidazo[4,5-b]pyridin-2-one], the IC50 amounted to 0.263 µM.
